| Structure (SMILES) | melting point [°C] |
| --- | --- |
| COc1ncnc(-c2cc([N+](=O)[O-])c(F)cc2F)c1Cl | 84 to 88 |
| CC(C)(C)c1cnc(-c2nn(-c3ccc(F)cc3F)c3c2C2CCC3C2)o1 (centres undefined) | 58 to 60 |
| CC(C)(C)OC(=O)Nc1c(C#N)cnn1-c1ccc(Cl)c(Cl)c1Cl | 140 to 141 |
| O=C(CCc1cnn2c(=O)[nH]cnc12)NCCCN1CCCC1=O | 180 to 181 |
| COC(=O)C=Cc1ccc(Cl)c([N+](=O)[O-])c1 | 107 |
| O=C(NC/C=C\COc1cc(CN2CCCCC2)ccn1)NC1CCC1 | 130 to 132 |
| COc1cc(OC)nc(Oc2cccc(C(F)(F)F)c2C(=O)O)n1 | 151 to 153 |
| CCC1(CCC(=O)OC)CCCN2CCc3c([nH]c4ccccc34)C21 (centres undefined) | 110 |
| Cc1c(N2C[C@@H](NC(=O)C(F)(F)F)C3(CC3)C2)c(F)c(N)c2c(=O)c(C(=O)O)cn(C3CC3)c12 | 246 to 248 |
| CCOc1ccccc1OCC(O)CNCCNc1cnn(C)c(=O)c1Cl (centres undefined) | 120 |
| OCc1cnn(-c2c(Cl)cc(C(F)(F)F)cc2Cl)n1 | 87 to 88 |
| CN(C)c1cc(C(=O)CS(C)(=O)=O)cc(N(C)C)c1C(C)(C)C | 177 to 179 |
| Nc1ccc(CC(=O)O)cc1Br | 139 to 140 |
| O=C(O)c1cn(CC2CC2)c2ccccc12 | 157 |
| CCNC(=O)c1ccc(-n2nnc(C(=O)NC3CC3)c2CSC)cc1 | 192 |
| N#Cc1c(CBr)c(C#N)c(CBr)c(C#N)c1CBr | 120 |
| CC(=O)OC1CSC(Oc2cccnc2-c2c(C)noc2C)C(OC(C)=O)C1OC(C)=O (centres undefined) | 68 to 72 |
| CC(C)(C)OC(=O)Nc1ccc(C#Cc2cccc(C#Cc3ccc(NC(=O)OC(C)(C)C)cc3)c2C(=O)O)cc1 | 118 |
| Cn1ncnc1COc1nc2c(cc1-c1ccoc1)nnn2-c1c(F)cccc1F | 166 to 169 |
| O=C(O)Cc1ccc(NC(=O)C(COc2cccc(Cl)c2)NS(=O)(=O)c2ccc(I)cc2)cc1 (racemic) | 225 to 226 |
| O=[N+]([O-])c1ccc2c(c1)CCC(COC1CCCCO1)O2 (centres undefined) | 66.4 |
| O=C(NC1CC1)c1cccc2c1CC(NC1CC1)CO2 (centres undefined) | 126 to 127 |
| C#CCCCCCCCCCCOc1cccc(C(N)=O)c1 | 106 to 108 |
| CC(C)(C)c1cc(C=Cc2cc(C=Cc3cc(C(C)(C)C)cc(C(C)(C)C)c3)cc(CBr)c2)cc(C(C)(C)C)c1 | 222 to 223 |
| O=C(Nc1cc(-c2nc(-c3ccco3)no2)ccc1Cl)OCC(Cl)(Cl)Cl | 114 to 116 |
| C[C@H]1[C@H](N)CN1c1cc2c(cc1F)c(=O)c(C(=O)O)cn2C(C)(C)C (relative stereo) | 225 to 227 |
| CCc1cccc(C2=NC(C)(C)CO2)c1C | 96 to 98 |

| Structure (SMILES) | melting point [°C] |
| --- | --- |
| CCOc1ccc(-c2noc3c(Cl)c(OC)ccc23)c(F)c1 | 151 to 152 |
| Cc1cccc2c1C(=O)NS2(=O)=O | 224 to 226 |
| CCOc1ccccc1C=[N+]([O-])C(C)C | 59.4 |
| C#C[C@]1(C)CCc2c(C)c(OC)c(C)c(C)c2O1 | 94 to 97 |
| CNC(=O)c1ccc(C)c(-c2nc(SC)nc3c2CNC(=O)N3c2c(F)cccc2F)c1 | 273 to 275 |
| CCCCCCCCCCCCNC(=S)C1(c2ccccn2)CCCS1 (centres undefined) | 60 |
| O=c1[nH]c(NCCCOc2cccc(CN3CCCCC3)c2)ncc1[N+](=O)[O-] | 161 to 164 |
| OC1CCNc2nc(Br)ccc21 (centres undefined) | 130 to 131 |
| COC(=O)c1c(C(=O)OC)c(-c2nccnc2C)n(NS(=O)(=O)c2ccc(C)cc2)c1C | 155 to 156 |
| N#CC(C#N)(CCCSC(F)(F)F)CC(F)(F)C(F)(F)C(F)(F)C(F)(F)C(F)(F)F | 88 to 90 |
| CC(=O)Nc1cc(Cl)c([N+](=O)[O-])cc1CCOC(C)=O | 153 |
| CCCCCCCCCCCCCCCCNc1ccc(C(=O)NC(C)(C)C(=O)O)cc1 | 199 to 202 |
| Cc1cccc(C)c1C(=O)Nc1cccc2c1CCN(C)C2 | 200 to 201 |
| CCCCCCCCCCCCCCC[C@H]1O[C@@H]1CO | 77 to 78 |
| CC1=C(C(=O)OC(C)C)C(c2cccc([N+](=O)[O-])c2)C(C(=O)O)=NN1 (centres undefined) | 195 |
| CCOC(=O)C1CCCCC1(c1ccc(O)c(C(C)(C)C)c1)c1ccc(O)c(C(C)(C)C)c1 (centres undefined) | 86 |
| CNN(C)C(=S)Nc1ccc(Cl)cc1 | 103 to 104 |
| O=C(NCCCO)c1ccc[nH]1 | 71 to 73 |
| CCC1(CC)C(=O)N(C(C)(C)C)CC(C)(C)N1OC(C(=O)O)c1ccccc1 (centres undefined) | 125 to 133 |
| CC1SC(=O)C=NC1=O (centres undefined) | 81 to 83 |
| O=c1ccc(-c2cc(F)cc(F)c2)n[nH]1 | 230 |
| O=C(N=CN1CCCCC1)C(O)(C(=O)N=CN1CCCCC1)c1ccc(Cl)c(Cl)c1 (centres undefined) | 195 |
| CC(C)(C)c1cc2sccc2c(C(C)(C)C)c1O | 107 |
| COC(=O)c1c(C)sc(C)c1N | 75 to 77 |
| CC(=O)OCC(=O)Nc1cc(C#N)cc(NC(=O)COC(C)=O)c1Cl | 193 to 195 |
| CCOc1ccc(-n2c(N)cc(=O)nc2SC)cc1 | 177 to 181 |

Continued, values first:

| melting point [°C] | Structure (SMILES) |
| --- | --- |
| 194 to 195 | COc1ccc(Oc2c(-c3ccc(S(C)(=O)=O)cc3)cnn(CC(F)(F)F)c2=O)cc1 |
| 105 to 107 | COCOc1ccc(C(=O)c2ccc(OCc3nc(-c4ccccc4)oc3C)cc2)c(O)c1 |
| 173 to 174 | COc1cccc(-c2c(Cl)c(CN3CCCCC3)nc3sc4c(c23)CCN(Cc2ccccc2)C4)c1OC |
| 140 to 141 | FC(F)(F)c1nnc2sc3ccccc3n12 |
| 106 to 110 | Cn1c(SCC(=O)NCCC[N+](C)([O-])Cc2ccc(Cl)c(Cl)c2)nc2ccccc21 (centres undefined) |
| 214 to 215 | Cc1nc(N)nc(-c2cccc3ccccc23)c1C |
| 95 to 97 | O=C(NC(CO)C(=O)N1CCN(CCCc2ccccc2)CC1)OCc1ccccc1 (centres undefined) |
| 170 to 171 | CC(C)(C)OC(=O)CNC(=O)OCC1c2c(c3ccccc3c3ccccc23)-c2c1c1ccccc1c1ccccc21 |
| 93 to 95 | C=CCOc1ccccc1C1C=NNC(=O)C1 (centres undefined) |
| 116 to 117 | O=Cc1ccc(/C=C/c2ccncc2)cc1 |
| 108 to 112 | Cc1cc(C(=O)N2Cc3ccc(C(=O)NCc4cccnc4)n3Cc3ccccc32)ccc1-c1ccccc1 |
| > 300 | CCn1c(=O)c2nc(-c3ccc(/C=C/C(=O)O)cc3)[nH]c2n(C)c1=O |
| 160 to 161 | N#Cc1cc(C(F)(F)F)ccc1Nc1ccccc1[N+](=O)[O-] |
| 132 to 134 | CN1CCC2(CC1)C(=O)N(C)C(=O)N2c1ccccc1 |
| 171 to 172 | CCN(CC)CC1CCCCN1CC(=O)N1c2ccccc2NC(=O)c2ccccc21 (centres undefined) |
| 199 to 200 | CN1C(=O)CC[C@]2(C)c3ccc(Sc4ccc(-c5ccccc5)nn4)cc3CC[C@@H]12 |
| 159 to 160 | CCOC(=O)c1cc(NCc2ccccc2)c(Nc2ccc(C)cc2)c(S(N)(=O)=O)c1 |
| 289 to 290 | COc1ccc(-c2ccc3n[nH]c(=O)n3n2)cc1F |
| 258 to 259 | Cc1c(-c2ccccc2)nc2ccc(NC(=O)c3cc4cc(F)ccc4n3Cc3cccc(F)c3)cn12 |
| 219 to 221 | O=C(O)c1cc2ccc3c(c2c(-c2ccc4c(c2)OCO4)c1COCc1ccccc1)OCO3 |
| 77 | CCOC(C)=C(C#N)C(=O)c1ccc(F)cc1 |
| 87 to 88 | Cc1oc(-c2ccccc2)nc1COc1ccc(COc2nn(Cc3ccccc3)cc2CC(=O)O)cn1 |
| 79 to 81 | CC(C)(C)S(=O)C1CC(=O)N1CC(=O)CCc1ccccc1 (centres undefined) |

| melting point [°C] | Structure (SMILES) |
| --- | --- |
| 242 to 244 | CCOC(=O)C1C=Nc2c(ccc3cccnc23)C1=O (centres undefined) |
| 111 to 114 | CN(Cc1ccccc1)c1cc(Oc2cccc(C(F)(F)F)c2)nc(C(=O)Nc2ccccc2)c1 |
| 102 to 104 | N#CC1c2ccccc2C=Cc2ccccc21 |
| 148 to 150 | COc1ccc(S/C(=C/C(=O)NO)CCCCc2ccccc2)cc1OC |
| 232 to 233 | O=C1N=Nc2ccccc21 |
| 134 to 137 | N#Cc1ccc(C(CC(=O)O)N2C(=O)c3ccccc3C2=O)cc1 (centres undefined) |
| 100 to 102 | FC(F)(F)Oc1ccc(/C=C/c2ccc(CBr)cc2)cc1 |
| 63 to 63.5 | Fc1cccc(-c2cncnc2)c1 |
| 254 to 256 | O=C1CCC(N2C(=O)c3cccc(OCc4ccc5ccccc5n4)c3C2=O)C(=O)N1 (centres undefined) |
| 117 to 119 | CC(C)OC(=O)c1cc(NC(=O)c2ccccc2)c(F)cc1Cl |
| 130 | C=CCN1C(=O)CN(c2ccc(OCc3ccccc3)cc2)C1=S |
| 240 to 242 | CC(C)n1nc(-c2c(Nc3ccccc3)nc(N)nc2-c2ccccc2)ccc1=O |
| 248 to 251 | O=C(Oc1ccc([N+](=O)[O-])cc1)c1ccc2[nH]cc(CCN3C(=O)c4ccccc4C3=O)c2c1 |
| 95 to 96 | O=C1NCCc2ccccc2C1c1ccccc1 (centres undefined) |
| 127 to 130 | CCCC(=O)Nc1c(C(=O)c2cccc(C)c2)[nH]c2cc(Cl)ccc12 |
| 169 to 172 | COc1cc2oc(=O)c(CCN3CCN(c4ccccc4)CC3)c(C)c2cc1OC |
| 331 to 332 | Cc1cnc2[nH]cc(/C=C3\N=C(N4CCN(c5ccccc5)CC4)NC3=O)c2c1 |
| 315 to 318 | Cc1cc(O)ccc1N1CCc2c(C)nc3ccccc3c21 |
| 150 | c1ccc(-c2cn(C3CCCN4CCCCC34)nn2)cc1 (centres undefined) |
| 203 to 204 | COc1cc(C(=O)NNC(=O)c2occ(-c3ccccc3)c2-c2ccccc2)ccc1OCc1ccccc1 |
| 225 to 227 | COc1ccccc1NC(=O)Nc1nc(Nc2ccccc2-c2ccccc2)nc(N(CCC(=O)O)CCc2ccccn2)n1 |
| 108 to 109 | CC(=O)SCC(Cc1ccccc1)C(=O)Nc1cccc(C(=O)OCc2ccccc2)c1 (centres undefined) |
| 76 to 77 | CCC(C(=O)c1ccc(N(CCN(CC)CC)S(C)(=O)=O)cc1)c1ccccc1 (centres undefined) |
